Experimental data reported in US9550782B2, “Compounds and methods for treating diabetes” (Medivation Technologies, Inc., priority 2011, dated 2017).
“And” between values parts separate entries of the source, which are not always exact repeats. Equal values may be shown once.

Legend:
[1] = target: T1, human recombinant adrenergic α2A receptor (Homo sapiens, UniProt P08913); experiment: Radioligand binding, adrenergic α2A ([3H]MK-912); conditions: for inhibition at 0.1 µM: read-out: Percentage inhibition of ligand binding, Adrenergic α2A (0.1 μM), compound at 0.1 μM
T1 construct: expressed in transfected cells; host or cells: insect Sf9 cells
T1 sequence (P08913 1-465): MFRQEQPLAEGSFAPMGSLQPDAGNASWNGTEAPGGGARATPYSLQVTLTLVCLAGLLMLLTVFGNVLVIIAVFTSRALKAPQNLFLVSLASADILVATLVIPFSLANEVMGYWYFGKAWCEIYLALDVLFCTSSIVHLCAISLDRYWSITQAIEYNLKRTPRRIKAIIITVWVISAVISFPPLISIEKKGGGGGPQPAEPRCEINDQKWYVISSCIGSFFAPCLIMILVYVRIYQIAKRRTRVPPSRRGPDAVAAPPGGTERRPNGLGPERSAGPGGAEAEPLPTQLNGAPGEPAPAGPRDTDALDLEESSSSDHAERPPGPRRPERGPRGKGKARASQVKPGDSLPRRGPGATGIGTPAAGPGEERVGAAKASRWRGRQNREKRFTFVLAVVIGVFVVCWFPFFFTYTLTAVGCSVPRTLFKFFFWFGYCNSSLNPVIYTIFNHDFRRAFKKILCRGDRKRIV
Description: To evaluate in radioligand binding assays the activity of compounds of the invention, human recombinant adrenergic α2A receptor expressed in insect Sf9 cells (Uhlen, S. et al, J. Pharmacol. Exp. Ther. 271:1558, 1994) in a modified Tris-HCl buffer (50 mM Tris-HCl, pH 7.4, 12.5 mM MgCl2, 2 mM EDTA) was used. Compounds of invention were incubated with 1 nM [^3H]MK-912 for 60 min at 25° C. MK912 is (2S-trans)-1,3,4,5′,6,6′,7,12b-octahydro-1′,3′-dimethyl-spiro[2H-benzofuro[2,3-a]quinolizine-2,4′(1′H)-pyrimidin]-2′(3′H)-one hydrochloride. Non-specific binding was estimated in the presence of 10 μM WB-4101 (2-(2,6-Dimethoxyphenoxyethyl)aminomethyl-1,4-benzodioxane hydrochloride). Receptor proteins were filtered and washed, the filters were then counted to determine [^3H]MK-912 specifically bound. […] Compounds of the invention were tested in this biochemical assay and percent inhibition of specific binding was determined. Biochemical assay results are presented as the percent inhibition of specific binding in Table B1.

[2] = target: T2, human recombinant adrenergic α2B receptor (Homo sapiens, UniProt P18089); experiment: Radioligand binding, adrenergic α2B ([3H]Rauwolscine); conditions: for Percentage inhibition of ligand binding, Adrenergic α2B (0.03 μM): repeat datapoints each shown; for inhibition at 0.03 µM: read-out: Percentage inhibition of ligand binding, Adrenergic α2B (0.03 μM), compound at 0.03 μM, repeat datapoints each shown
T2 construct: expressed in transfected cells; host or cells: CHO-K1
T2 sequence (P18089 1-450): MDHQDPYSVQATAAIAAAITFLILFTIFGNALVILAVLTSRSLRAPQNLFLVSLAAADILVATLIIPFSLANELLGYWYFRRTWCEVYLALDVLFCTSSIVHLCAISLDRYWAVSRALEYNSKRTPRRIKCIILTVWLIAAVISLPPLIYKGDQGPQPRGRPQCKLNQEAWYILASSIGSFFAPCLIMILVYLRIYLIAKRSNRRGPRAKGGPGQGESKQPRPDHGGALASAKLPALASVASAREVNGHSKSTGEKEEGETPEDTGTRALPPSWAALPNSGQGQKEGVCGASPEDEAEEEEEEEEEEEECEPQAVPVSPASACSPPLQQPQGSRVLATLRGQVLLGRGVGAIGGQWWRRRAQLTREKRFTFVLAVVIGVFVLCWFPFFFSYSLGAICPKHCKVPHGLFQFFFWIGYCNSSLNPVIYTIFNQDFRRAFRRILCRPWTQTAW
Description: To evaluate in radioligand binding assays the activity of compounds of the invention, human recombinant adrenergic α2B receptor expressed in Chinese hamster ovary (CHO) K1 cells (Uhlen, S. et al, Eur. J. Pharmacol. 343(1):93, 1998) in a modified Tris-HCl buffer (50 mM Tris-HCl, pH 7.4, 12.5 mM MgCl2, 1 mM EDTA, 0.2% BSA) was used. Compounds of the invention were incubated with 2.5 nM [3H]Rauwolscine for 60 min at 25° C. Non-specific binding was estimated in the presence of 10 μM Prazosin. Receptor proteins were filtered and washed, the filters were then counted to determine [3H]Rauwolscine specifically bound. […] Compounds of the invention were tested in this biochemical assay and percent inhibition of specific binding was determined. Biochemical assay results are presented as the percent inhibition of specific binding in Table B1.

[3] = target: T3, rat adrenergic α1B receptor (Rattus norvegicus, UniProt P15823); experiment: Radioligand binding, adrenergic α1B ([3H]Prazosin); parameters: species or system Wistar Rat; conditions: for Percentage inhibition of ligand binding, Adrenergic α1B (0.1 μM): compound at 0.1 μM, repeat datapoints each shown
T3 construct: rat adrenergic α1B receptor obtained from Wistar Rat liver; from tissue; host or cells: Wistar rat liver
T3 sequence (P15823 1-515): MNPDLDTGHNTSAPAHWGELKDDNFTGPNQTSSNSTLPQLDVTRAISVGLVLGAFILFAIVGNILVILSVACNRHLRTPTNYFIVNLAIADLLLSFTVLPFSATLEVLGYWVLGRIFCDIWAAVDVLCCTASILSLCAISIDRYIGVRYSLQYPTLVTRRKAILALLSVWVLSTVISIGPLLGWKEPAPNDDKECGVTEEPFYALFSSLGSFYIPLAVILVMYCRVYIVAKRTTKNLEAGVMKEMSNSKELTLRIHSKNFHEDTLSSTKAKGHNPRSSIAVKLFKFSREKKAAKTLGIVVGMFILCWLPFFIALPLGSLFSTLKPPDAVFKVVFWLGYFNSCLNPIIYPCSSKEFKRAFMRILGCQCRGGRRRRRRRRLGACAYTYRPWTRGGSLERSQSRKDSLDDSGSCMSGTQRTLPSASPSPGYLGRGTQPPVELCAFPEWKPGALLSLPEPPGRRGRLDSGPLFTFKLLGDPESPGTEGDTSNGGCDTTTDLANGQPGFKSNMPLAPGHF
Description: To evaluate in radioligand binding assays the activity of compounds of the invention, rat adrenergic α1B receptor obtained from Wistar Rat liver (Garcia-S'ainz, J. et al, Biochem. Biophys. Res. Commun. 186:760, 1992; Michel, A. et al, Br. J. Pharmacol. 98:883, 1989) in a modified Tris-HCl buffer (50 mM Tris-HCl buffer, pH 7.4, 0.5 mM EDTA) was used. Compounds of the invention were incubated with 0.25 nM [^3H]Prazosin for 60 min at 25° C. Non-specific binding was estimated in the presence of 10 μM phentolamine. Receptor proteins were filtered and washed, the filters were then counted to determine [^3H]Prazosin specifically bound. […] Compounds of the invention were tested in this biochemical assay and percent inhibition of specific binding was determined. Biochemical assay results are presented as the percent inhibition of specific binding in Table B1.

[4] = 0.1 μM compound, [3H]MK-912, 0.1 µM
[5] = [3H]MK-912, repeat datapoints each shown
[6] = compound at 0.1 μM, [3H]MK-912, 0.1 µM

## C/C(=C\n1c2c(c3cc(C)ccc31)C1CCCCN1CC2)c1ccc(F)cc1 (single isomer, unassigned) [199a]
[1]; [4]
  Percentage inhibition of ligand binding, Adrenergic α2A: 96%
[2]; 0.03 μM compound, 0.03 µM
  Percentage inhibition of ligand binding, Adrenergic α2B: 94%

## Cc1ccc2c(c1)c1c(n2CC(OC(=O)C(N)C(C)C)c2ccncc2)CCN(C)C1 (single isomer, unassigned) [25a]
[3]; 0.1 µM
  Percentage inhibition of ligand binding, Adrenergic α1B (0.1 μM): 4%
[2]; compound at 0.03 μM, 0.03 µM
  Percentage inhibition of ligand binding, Adrenergic α2B (0.03 μM): 54%

## Cc1ccc2c(c1)c1c(n2CC(N=[N+]=[N-])c2ccncc2)CCN(C)C1 (racemic) [V-1a, 5-(2-azido-2-(pyridin-4-yl)ethyl)-2,3,4,5-tetrahydro-2,8-dimethyl-1H-pyrido[4,3-b]indole]
[1]; [5]
  inhibition at 0.1 µM: 36%
[2]
  inhibition at 0.03 µM: 88%

## 2-(4-fluoro-phenyl)-1-(9-methyl-1,2,3,4,5,10c-hexahydro-3a,6-diaza-cyclopenta[c]fluoren-6-yl)-propan-2-ol [II-121b]
[1]; [3H]MK-912, Sf9, repeat assays each datapoint shown
  Ki: 9.18 nM
[1]; compound at 0.03 μM, [3H]MK-912, repeat datapoints each shown
  Percentage inhibition of ligand binding, Adrenergic α2A (0.03 μM): 54%
[1]; compound at 0.1 μM, [3H]MK-912, repeat datapoints each shown, 0.1 µM
  Percentage inhibition of ligand binding, Adrenergic α2A (0.1 μM): 80% and 85%
[2]; CHO-K1, repeat assays each datapoint shown
  Ki: 0.22 nM
[2]; compound at 0.03 μM, 0.03 µM
  Percentage inhibition of ligand binding, Adrenergic α2B (0.03 μM): 100% and 103%

## Cc1ccc2c(c1)c1c(n2CC(N)c2ccncc2)CCN2CCCC12 (single isomer, unassigned) [II-4a, 2-(9-methyl-1,2,3,4,5,10c-hexahydro-3a,6-diaza-cyclopenta[c]fluoren-6-yl)-1-pyridin-4-yl-ethylamine]
[2]; compound at 0.03 μM, 0.03 µM
  Percentage inhibition of ligand binding, Adrenergic α2B: 79%

## Cc1cnc2c(c1)c1c(n2CC(O)c2ccc(C)nc2)CCN(C)C1 (single isomer, unassigned) [II-100a]
[1]; [6]
  Percentage inhibition of ligand binding, Adrenergic α2A: 7%
[2]; compound at 0.03 μM, 0.03 µM
  Percentage inhibition of ligand binding, Adrenergic α2B: 12%

## Cc1ccc2c(c1)c1c(n2C(C)C(O)c2ccncc2)CCN(C)C1 (stereo not shown) [II-98b]
[2]; compound at 0.03 μM
  Percentage inhibition of ligand binding, Adrenergic α2B: 5%

## Cc1ccc2c(c1)c1c(n2CC(C)(O)c2ccc(C)nc2)CN(C)CC1 (stereo not shown) [196b]
[3]; 0.1 μM compound, 0.1 µM
  Percentage inhibition of ligand binding, Adrenergic α1B: 37%
[2]; 0.03 μM compound, 0.03 µM
  Percentage inhibition of ligand binding, Adrenergic α2B: −2%

## Cc1ccc2c(c1)c1c(n2C(C)C(O)c2ccncc2)CCN(C)C1 (single isomer, unassigned) [127a]
[2]; 0.03 μM compound
  Percentage inhibition of ligand binding, Adrenergic α2B: 43%
[2]; 0.1 μM compound
  Percentage inhibition of ligand binding, Adrenergic α2B: 74%

## CN1CCc2c(n(CC(O)c3ccncc3)c3ccc(Cl)cc23)C1 (stereo not shown) [compound 41]
[1]; [5]
  inhibition at 0.1 µM: 24%
[2]
  inhibition at 0.03 µM: 45%

## Cc1cnc2c(c1)c1c(n2CC(O)c2ccc(F)cc2)CCN(C)C1 (single isomer, unassigned) [136b]
[1]; [4]
  Percentage inhibition of ligand binding, Adrenergic α2A: 21%
[2]; 0.03 μM compound, 0.03 µM
  Percentage inhibition of ligand binding, Adrenergic α2B: 69%

## Cc1cnc2c(c1)c1c(n2CCc2ccc(C)nc2)CCN2CCCCC12 (single isomer, unassigned) [IV-8a]
[2]; compound at 0.03 μM, 0.03 µM
  Percentage inhibition of ligand binding, Adrenergic α2B (0.03 μM): 4%

## Cc1ccc2c(c1)c1c(n2CC(O)c2ccncc2)C(C)N2CCC1C2 (stereo not shown) [compound 38]
[1]; [5]
  inhibition at 0.1 µM: -1%
[2]
  inhibition at 0.03 µM: 56%

## Cc1ccc(CCn2c3c(c4cc(Cl)cnc42)C2CCCN2CC3)cn1 (single isomer, unassigned) [137a]
[3]; 0.1 μM compound, 0.1 µM
  Percentage inhibition of ligand binding, Adrenergic α1B: 94%
[2]; 0.03 μM compound, 0.03 µM
  Percentage inhibition of ligand binding, Adrenergic α2B: 104%

## Cc1ccc2c(c1)c1c(n2CC(OC(=O)C(N)C(C)C)c2ccncc2)CCN(C)C1 (single isomer, unassigned) [25b]
[3]; 0.1 µM
  Percentage inhibition of ligand binding, Adrenergic α1B (0.1 μM): 12%
[2]; compound at 0.03 μM, 0.03 µM
  Percentage inhibition of ligand binding, Adrenergic α2B (0.03 μM): 75%

## Cc1ccc2c(c1)c1c(n2CC(N)c2ccncc2)CCN2CCCC12 (single isomer, unassigned) [II-4b, 2-(9-methyl-1,2,3,4,5,10c-hexahydro-3a,6-diaza-cyclopenta[c]fluoren-6-yl)-1-pyridin-4-yl-ethylamine]
[2]; compound at 0.03 μM, 0.03 µM
  Percentage inhibition of ligand binding, Adrenergic α2B: 100%

## C/C(=C\n1c2c(c3cc(C)ccc31)C1CCCCN1CC2)c1ccc(F)cc1 (single isomer, unassigned) [199b]
[1]; [4]
  Percentage inhibition of ligand binding, Adrenergic α2A: 61%
[2]; 0.03 μM compound, 0.03 µM
  Percentage inhibition of ligand binding, Adrenergic α2B: 27%

## OCCN1CCc2c(c3cc(Cl)ccc3n2CC(O)c2cccnc2)C1 (single isomer, unassigned) [II-94a]
[1]; [6]
  Percentage inhibition of ligand binding, Adrenergic α2A: 0%
[2]; compound at 0.03 μM, 0.03 µM
  Percentage inhibition of ligand binding, Adrenergic α2B: 8%

## Cc1ccc2c(c1)c1c(n2CC(OC(=O)C(C)(C)C)c2ccncc2)CCN(C)C1 (single isomer, unassigned) [130a]
[3]; 0.03 μM compound, 0.03 µM
  Percentage inhibition of ligand binding, Adrenergic α1B: 32%
[3]; 0.1 μM compound, 0.1 µM
  Percentage inhibition of ligand binding, Adrenergic α1B: 66% and 68%
[2]; 0.03 μM compound, 0.03 µM
  Percentage inhibition of ligand binding, Adrenergic α2B: 100% and 104%
[2]; 0.1 μM compound
  Percentage inhibition of ligand binding, Adrenergic α2B: 107%

## CN1CCc2c(c3cc(Cl)ccc3n2CC(O)c2ccncc2)C1 (stereo not shown) [compound 4]
[2]
  inhibition at 0.03 µM: 106%

## Cc1cnc2c(c1)c1c(n2CC(C)(O)c2ccc(C)nc2)CCN2CCCC12 (single isomer, unassigned) [148d]
[1]; [4]
  Percentage inhibition of ligand binding, Adrenergic α2A: −11%
[2]; 0.03 μM compound, 0.03 µM
  Percentage inhibition of ligand binding, Adrenergic α2B: 11%

## Cc1ccc2c(c1)c1c(n2CC(O)c2ccc(C#N)cc2)CCN(C)C1 (stereo not shown) [142a]
[3]; 0.1 μM compound
  Percentage inhibition of ligand binding, Adrenergic α1B: 68%
[2]; 0.03 μM compound
  Percentage inhibition of ligand binding, Adrenergic α2B: 71%

## Cc1cnc2c(c1)c1c(n2CC(N)c2ccc(C#N)cc2)CCN(C)C1 (single isomer, unassigned) [159a]
[3]; 0.1 μM compound, 0.1 µM
  Percentage inhibition of ligand binding, Adrenergic α1B: −2%
[2]; 0.03 μM compound, 0.03 µM
  Percentage inhibition of ligand binding, Adrenergic α2B: 37%
